Data as given in article PMC7041945, “Misfolded proteins bind and activate death receptor 5 to trigger apoptosis during unresolved endoplasmic reticulum stress” (eLife, 2020).

Key:
DR5 = experiment: GFP immunoprecipitation: DR5 (FADD, caspase 8) recovered with GFP-tagged protein, Western blot; type: cell-based, Homo sapiens; details: for fraction of DR5 IP'ed: GFP IP
Protocol: 15 cm dishes were seeded with 4 million HCT116 cells and allowed to recover for 18 hr prior to transfection. Samples were then transfected for 24 hr with the GFP-tagged ER trafficked protein, cytosolic GFP, or empty vector. To harvest apoptotic and living cells for each sample, all media and washes were collected. Cells were scraped in 2 ml of cold PBS and combined with the media and washes. Samples were centrifuged to pellet cells, washed with 1 ml cold PBS, and flash frozen in liquid N2 prior to lysis.
The cell pellets were resuspended in 750 μl of 30 mM HEPES pH 7.2, 150 mM NaCl, 1% Triton X-100 with 1x Roche protease inhibitor cocktail (if used subsequently for caspase glo 8 assay) or with 5x Roche protease inhibitor cocktail (if used for immunoblotting). The cells were lysed by mechanical shearing through a 25G needle for 13–15 plunges followed by incubation on ice for 30 min. The lysate was centrifuged at 2000xg for 5 min to remove debris and then incubated with 30 μl of GFP-Trap magnetic agarose beads (Chromotek gtma-20) for 4 hr at 4°C. The beads were then washed with 750 μl of lysis buffer for 10 min at 4°C for three rounds.
For Western blots, samples were eluted by adding 35 μl of non-reducing SDS gel loading buffer (50 mM Tris-HCl (pH 6.8), 2% SDS, 0.1% bromophenol blue, 10% glycerol) and incubated for 10 min at 70°C. The beads were then magnetically removed from the eluted sample before adding DTT to a final concentration of 25 mM. The entire sample was loaded onto the gel and immunoblotted for DR5, caspase 8, and GFP, in that order.

[1] = test system: caspase 8 in HCT116 lysates; experiment: Caspase 8 activity (caspase glo 8) of cell lysates / IP inputs; type: cell-based, Homo sapiens; details: for norm RLUs: rep 2, normalized by lysate quant
How it was run: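 HCT116 cells lysed in 30 mM HEPES pH 7.2, 150 mM NaCl, 1% Triton X-100 by needle shearing, 30 min on ice, cleared at 1000xg. Supernatant diluted 1:25-1:100 and incubated 45 min at RT with luminogenic caspase-8 substrate; luminescence read.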

GAPDH = experiment: qPCR of GAPDH (reference transcript); type: cell-based; details: Rep 2; for avg. fold induction GAPDH / fold induction GAPDH: relative to empty traffo
HCT116 cells = experiment: Annexin V (and SytoxBlue) flow cytometry for apoptosis; type: cell-based, Homo sapiens
How it was run: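 HCT116 cells transfected with the specified plasmid for 24 hr, trypsinized and allowed 30 min recovery at 37°C. Stained with Annexin V-AlexaFluor 647 (1:20) for 15 min at RT in the dark; apoptotic cell distribution determined by flow cytometry.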

Q: Which “fraction of DR5 IP'ed” value (DR5; sheet 2018-04-13 rep 2) does the source give for “INS-GFP: GFP-tagged proinsulin expressed from plasmid” here?
A: Its value is 0.03271.

Q: What about the “fraction of DR5 IP'ed” value (DR5; sheet 2018-09-20 rep 1) of the same substance?
A: The value was 0.01265.

Q: What about the “fraction IP'ed” value (DR5; Rep 1 (second series)) of the same substance?
A: Its value is 0.03271.

Q: What about the “fraction IP'ed” value (DR5; Rep 2 (second series)) of the same substance?
A: Its value is 0.01265.

Q: And the “% IP'ed” value (DR5; average of all replicates)?
A: The value was 2.268%.

Q: What about the “fraction IP'ed, average” value (DR5; average of all replicates) of the same substance?
A: The value was 0.02268.

Q: And the “Mean ± SEM (fraction IP'ed)” value (DR5; unpaired t test sheet, GFP n=5, MPZ n=3, INS n=2, RHO n=2)?
A: The value was 0.02268 ± 0.01003, n=2.

Q: What about the “95% confidence interval (difference between means)” value (DR5; vs. GFP, fraction IP'ed) of the same substance?
A: Its value is -0.02195 to 0.04688.

Q: What about the Difference between means (DR5; vs. GFP, fraction IP'ed, ± SEM) of the same substance?
A: Its Difference between means is 0.01247 ± 0.01339.

Q: What about the “fold change in caspase 8 activity relative to GFP” value ([1]; input lysates GFP vs INS vs RHO, Rep1) of the same substance?
A: Its value is 2.597 fold.

Q: What about the “fold change in caspase 8 activity relative to GFP” value ([1]; input lysates GFP vs INS vs RHO, Rep2) of the same substance?
A: Its value is 2.0013 fold.

Q: And the “avg fold change in caspase 8 activity relative to GFP” value ([1]; input lysates GFP vs INS vs RHO, average of Rep1 and Rep2)?
A: The value was 2.299 fold.

Q: What about the “Mean ± SEM (lysate inputs)” value ([1]; lysate inputs, relative to GFP, n=2) of the same substance?
A: Its value is 2.299 ± 0.2977, n=2.

Q: And the “norm RLUs” value ([1]; dilution 0.025)?
A: The value was 1827.1 RLUs.

Q: What about the “norm RLUs” value ([1]; dilution 0.05) of the same substance?
A: The value was 3654.19 RLUs.

Q: What about the “norm RLUs” value ([1]; dilution 0.1) of the same substance?
A: The value was 8264.86 RLUs.

Q: And the “95% confidence interval of difference (lysate inputs)” value ([1]; vs. GFP)?
A: The value was 0.01818 to 2.580.

Q: And the “Difference between means (lysate inputs)” value ([1]; vs. GFP)?
A: The value was 1.299 ± 0.2977.

Q: What about the “Cq GAPDH” value (GAPDH; 3 hr, mean of 3 replicates) of the same substance?
A: The value was 19.1619.

Q: What about the “avg. fold induction GAPDH” value (GAPDH; 3 hr, mean of 3 replicates) of the same substance?
A: Its value is 1.

Q: What about the “fold induction GAPDH” value (GAPDH; 3 hr, replicate 1) of the same substance?
A: Its value is 0.8888.

Q: And the “fold induction GAPDH” value (GAPDH; 3 hr, replicate 2)?
A: Its value is 1.06.

Q: What about the “fold induction GAPDH” value (GAPDH; 3 hr, replicate 3) of the same substance?
A: Its value is 1.051.

Q: What about the “2^-(deltaCq) GAPDH” value (GAPDH; 3 hr, replicate 1) of the same substance?
A: The value was 0.8916.

Q: What about the “Cq GAPDH” value (GAPDH; 3 hr, replicate 1) of the same substance?
A: Its value is 19.3274.

Q: And the “Cq(sample) - avg Cq(GAPDH), GAPDH” value (GAPDH; 3 hr, replicate 1)?
A: Its value is 0.1655.

Q: And the “2^-(deltaCq) GAPDH” value (GAPDH; 3 hr, replicate 2)?
A: Its value is 1.064.

Q: What about the “Cq GAPDH” value (GAPDH; 3 hr, replicate 2) of the same substance?
A: The value was 19.0729.

Q: And the “Cq(sample) - avg Cq(GAPDH), GAPDH” value (GAPDH; 3 hr, replicate 2)?
A: The value was -0.08892.

Q: And the “2^-(deltaCq) GAPDH” value (GAPDH; 3 hr, replicate 3)?
A: Its value is 1.055.

Q: And the “Cq GAPDH” value (GAPDH; 3 hr, replicate 3)?
A: The value was 19.0852.

Q: And the “Cq(sample) - avg Cq(GAPDH), GAPDH” value (GAPDH; 3 hr, replicate 3)?
A: Its value is -0.07662.

Q: What about the “Cq GAPDH” value (GAPDH; 7 hr, mean of 3 replicates) of the same substance?
A: Its value is 19.3003.

Q: And the “avg. fold induction GAPDH” value (GAPDH; 7 hr, mean of 3 replicates)?
A: Its value is 1.004.

Q: And the “fold induction GAPDH” value (GAPDH; 7 hr, replicate 1)?
A: Its value is 0.8393.

Q: And the “fold induction GAPDH” value (GAPDH; 7 hr, replicate 2)?
A: Its value is 1.091.

Q: What about the “fold induction GAPDH” value (GAPDH; 7 hr, replicate 3) of the same substance?
A: The value was 1.082.

Q: What about the “2^-(deltaCq) GAPDH” value (GAPDH; 7 hr, replicate 1) of the same substance?
A: Its value is 0.842.

Q: And the “Cq GAPDH” value (GAPDH; 7 hr, replicate 1)?
A: The value was 19.5485.

Q: What about the “Cq(sample) - avg Cq(GAPDH), GAPDH” value (GAPDH; 7 hr, replicate 1) of the same substance?
A: The value was 0.2482.

Q: What about the “2^-(deltaCq) GAPDH” value (GAPDH; 7 hr, replicate 2) of the same substance?
A: The value was 1.094.

Q: What about the “Cq GAPDH” value (GAPDH; 7 hr, replicate 2) of the same substance?
A: The value was 19.1708.

Q: And the “Cq(sample) - avg Cq(GAPDH), GAPDH” value (GAPDH; 7 hr, replicate 2)?
A: Its value is -0.1295.

Q: What about the “2^-(deltaCq) GAPDH” value (GAPDH; 7 hr, replicate 3) of the same substance?
A: Its value is 1.086.

Q: And the “Cq GAPDH” value (GAPDH; 7 hr, replicate 3)?
A: The value was 19.1817.

Q: What about the “Cq(sample) - avg Cq(GAPDH), GAPDH” value (GAPDH; 7 hr, replicate 3) of the same substance?
A: Its value is -0.1186.

Q: And the “Cq GAPDH” value (GAPDH; 24 hr, mean of 3 replicates)?
A: The value was 19.7046.

Q: What about the “avg. fold induction GAPDH” value (GAPDH; 24 hr, mean of 3 replicates) of the same substance?
A: Its value is 1.006.

Q: What about the “fold induction GAPDH” value (GAPDH; 24 hr, replicate 1) of the same substance?
A: Its value is 0.8281.

Q: And the “fold induction GAPDH” value (GAPDH; 24 hr, replicate 2)?
A: Its value is 1.042.

Q: What about the “fold induction GAPDH” value (GAPDH; 24 hr, replicate 3) of the same substance?
A: The value was 1.149.

Q: And the “2^-(deltaCq) GAPDH” value (GAPDH; 24 hr, replicate 1)?
A: Its value is 0.8307.

Q: And the “Cq GAPDH” value (GAPDH; 24 hr, replicate 1)?
A: The value was 19.9722.

Q: What about the “Cq(sample) - avg Cq(GAPDH), GAPDH” value (GAPDH; 24 hr, replicate 1) of the same substance?
A: Its value is 0.2676.

Q: And the “2^-(deltaCq) GAPDH” value (GAPDH; 24 hr, replicate 2)?
A: The value was 1.045.

Q: What about the “Cq GAPDH” value (GAPDH; 24 hr, replicate 2) of the same substance?
A: The value was 19.6413.

Q: And the “Cq(sample) - avg Cq(GAPDH), GAPDH” value (GAPDH; 24 hr, replicate 2)?
A: The value was -0.06334.

Q: What about the “2^-(deltaCq) GAPDH” value (GAPDH; 24 hr, replicate 3) of the same substance?
A: Its value is 1.1521.

Q: What about the “Cq GAPDH” value (GAPDH; 24 hr, replicate 3) of the same substance?
A: The value was 19.5004.

Q: What about the “Cq(sample) - avg Cq(GAPDH), GAPDH” value (GAPDH; 24 hr, replicate 3) of the same substance?
A: The value was -0.2043.

Q: And the “PARP cleavage and annexin V staining” value (HCT116 cells; HCT116, transfected 24 hr, Nt or DR5 siRNA)?
A: The value was “induced PARP cleavage and annexin V staining in a DR5-dependent manner”.

Q: And the “Mean ± SEM (siDR5), Annexin V” value (HCT116 cells; siDR5, N=3)?
A: The value was 19 ± 1.7 N=3.

Q: And the “95% confidence interval of difference, Annexin V” value (HCT116 cells; siDR5 vs. siNt)?
A: Its value is -25 to -8.3.

Q: What about the “Difference between means, Annexin V” value (HCT116 cells; siDR5 vs. siNt) of the same substance?
A: Its value is -17 ± 2.9.

Q: What about the “Mean ± SEM (siNt), Annexin V” value (HCT116 cells; siNt, N=3) of the same substance?
A: The value was 35 ± 2.4 N=3.
